Literature values, collected in PMC6510909 (Investigational New Drugs, 2018).
Where two headings read alike, the source gives them in different places.

Experiments:
pancreatic cancer = conditions: nab-P + G group, MPACT trial; cited from earlier work
[1] = system: patients with metastatic pancreatic cancer that was refractory to gemcitabine; design: method as in PMID 26351344; conditions: with capecitabine, cited from earlier work
[2] = system: patients with advanced/metastatic pancreatic cancer; design: method as in earlier work; conditions: JANUS-1 interim analysis; P = 0.409; cited from earlier work
[3] = system: patients with advanced/metastatic pancreatic cancer; design: method as in earlier work; conditions: JANUS-2 interim analysis; P = 0.942; cited from earlier work

Molecule: albumin-bound paclitaxel + gemcitabine [nab-P + G]
- Median OS (pancreatic cancer): 8.5 months

Molecule: N#CC[C@H](C1CCCC1)n1cc(-c2ncnc3[nH]ccc23)cn1 [ruxolitinib]
- HR for OS, ruxolitinib vs placebo ([1]; overall study population, P = 0.25): 0.79 [95% CI, 0.53–1.18]
- HR for OS, ruxolitinib vs placebo ([1]; subgroup with C-reactive peptide >13 mg/L, P = 0.011): 0.47 [95% CI, 0.26–0.85]
- HR for OS, ruxolitinib vs placebo [2]: 0.969 [95% CI, 0.75–1.26]
- HR for OS, ruxolitinib vs placebo [3]: 1.584 [95% CI, 0.89–2.83]
